# Where two headings read alike, the source gives them in different places.
# Tests used:
# [1] = system: experimental autoimmune encephalomyelitis (EAE); assay: Rat experimental autoimmune encephalomyelitis (EAE) model, preventive treatment; assay type: in vivo
# Method: A further study was carried out to study the impact of Lp-PLA2 inhibitors on modulating M1/M2 imbalance. In this study, rats were induced to develop experimental autoimmune encephalomyelitis (EAE) by immunization with myelin basic protein (MBP) antigen and treated with a known Lp-PLA2 inhibitor: 5-((9-Methoxy-4-oxo-6,7-dihydro-4H-pyrimido[6,1-a]isoquinolin-2-yl)oxy)-2-(3-(trifluoromethyl)phenoxy)benzonitrile (See PCT application no. PCT/CN2011/001597). In this preventive treatment model, the compound was administered at day 0 (day of immunization) and continued to administer until day 22. The study lasted for 25 days. Rats were subsequently monitored for symptoms of EAE. Rats were immunized with MBP to develop EAE and symptoms were monitored daily. Plasma Lp-PLA2 activity, OxLDL, and LysoPC concentration were determined at different time points through the course of EAE.
# [2] = system: proinflammatory (M1) and anti-inflammatory (M2) markers; assay: Ex vivo analysis of M1 and M2 markers in macrophages of EAE rats by realtime PCR; parameters: species or system rat; details: splenic macrophages day 13 post MBP-immunization and CNS infiltrating macrophages
# Method: Ex vivo analysis of proinflammatory (M1) and anti-inflammatory (M2) markers in control and compound treated EAE rats. Splenic macrophages were harvested at day 13 post MBP-immunization and assayed for expression of a variety of markers by realtime PCR. CNS infiltrating cells were harvested and macrophages were analyzed for expression of M1 and M2 markers by realtime PCR.
# [3] = biological target: T1, recombinant human Lp-PLA2 (Homo sapiens, UniProt Q13093); assay: Recombinant human Lp-PLA2 assay (rhLp-PLA2, PED6 assay); assay type: biochemical
# T1 sequence (Q13093 22-441): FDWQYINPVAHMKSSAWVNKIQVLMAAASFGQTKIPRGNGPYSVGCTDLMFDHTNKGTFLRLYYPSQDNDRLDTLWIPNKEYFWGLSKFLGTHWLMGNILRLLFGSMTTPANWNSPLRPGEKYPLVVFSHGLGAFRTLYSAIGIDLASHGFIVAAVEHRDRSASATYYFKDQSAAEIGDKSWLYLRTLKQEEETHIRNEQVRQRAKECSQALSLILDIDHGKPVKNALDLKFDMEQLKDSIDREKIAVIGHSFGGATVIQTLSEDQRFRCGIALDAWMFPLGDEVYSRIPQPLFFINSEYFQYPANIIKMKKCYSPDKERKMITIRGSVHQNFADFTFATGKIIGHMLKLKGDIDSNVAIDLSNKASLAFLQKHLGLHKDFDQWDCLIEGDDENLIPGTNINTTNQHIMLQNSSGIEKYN
# Summary of the method: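 Enzyme (4 nM or 110 pM, as stated for the 5 μL addition) preincubated 30 min with compound in 50 mM HEPES pH 7.4, 150 mM NaCl, 1 mM CHAPS, then PED6 substrate (4 or 5 μM in the addition) added. Fluorescence (ex 480/em 540) read after 20 min, room temperature; pIC50 from curve fitting.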
# Lp-PLA2 in human plasma = biological target: T2, Lp-PLA2 in human plasma (Homo sapiens, UniProt Q13093); assay: Lp-PLA2 human plasma assay (Thio-PAF assay); assay type: biochemical; details: pooled human plasma; read-out: pIC50 values in the thio-PAF assay (converted)
# T2 construct: from tissue; host or cells: pooled human plasma
# T2 sequence (Q13093 22-441): T1 sequence (Q13093 22-441)
# Summary of the method: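 Pooled human plasma preincubated 30 min with compound, then 2-thio-PAF substrate added with CPM and NEM in 50 mM HEPES pH 7.4, 150 mM NaCl, 1 mM CHAPS. Quenched with TFA after 2 min, incubated 40 min at room temperature, and read by fluorescence at ex 380/em 485 nm. Values given as pIC50.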
# [4] = read-out: pIC50 values in the recombinant human Lp-PLA2 assay (converted)
"IC50 [3, 4] [nM]",IC50 (Lp-PLA2 in human plasma) [nM],SMILES,further results
,,"COc1ccc2c(c1)CCn1c-2cc(Oc2ccc(Oc3cccc(C(F)(F)F)c3)c(C#N)c2)nc1=O [5-((9-Methoxy-4-oxo-6,7-dihydro-4H-pyrimido[6,1-a]isoquinolin-2-yl)oxy)-2-(3-(trifluoromethyl)phenoxy)benzonitrile]","Lp-PLA2 activity in rat EAE plasma ([1]; rat EAE plasma): decreased; LysoPC levels in rat EAE plasma ([1]; rat EAE plasma): decreased; clinical disease ([1]; rat EAE, administered day 0 until day 22): reduction in clinical disease; M1 markers [2]: decrease; M2 markers [2]: increase"
≤ 1,≤ 10,"C[C@H]1CCn2c(cc(OCc3cc(F)c(Oc4ccnc(C(F)(F)F)c4)c(F)c3)nc2=O)N1C [E146, (S)-8-((3,5-difluoro-4-((2-(trifluoromethyl)pyridin-4-yl)oxy)benzyl)oxy)-1,2-dimethyl-3,4-dihydro-1H-pyrimido[1,6-a]pyrimidin-6(2H)-one]",IC50 ([3]; read-out: rhLp-PLA2 (PED6 assay) (pIC50) (converted)): 0.0158 nM
≤ 1,≤ 10,"C[C@@H]1CCn2c(cc(OCc3ccc(Oc4ccnc(C(F)(F)F)c4)c(F)c3)nc2=O)N1C [E147, (R)-8-((3-fluoro-4-((2-(trifluoromethyl)pyridin-4-yl)oxy)benzyl)oxy)-1,2-dimethyl-3,4-dihydro-1H-pyrimido[1,6-a]pyrimidin-6(2H)-one]",
≤ 1,≤ 10,"C[C@@H]1CCn2c(cc(OCc3cc(F)c(Oc4cncc(C(F)(F)F)c4)c(F)c3)nc2=O)N1C [E148, (R)-8-((3,5-difluoro-4-((5-(trifluoromethyl)pyridin-3-yl)oxy)benzyl)oxy)-1,2-dimethyl-3,4-dihydro-1H-pyrimido[1,6-a]pyrimidin-6(2H)-one]",
≤ 1,≤ 10,"C[C@@H]1CCn2c(cc(OCc3ccc(Oc4cncc(C(F)(F)F)c4)c(F)c3)nc2=O)N1C [E149, (R)-8-((3-fluoro-4-((5-(trifluoromethyl)pyridin-3-yl)oxy)benzyl)oxy)-1,2-dimethyl-3,4-dihydro-1H-pyrimido[1,6-a]pyrimidin-6(2H)-one]",
≤ 1,≤ 10,"C[C@H]1CCn2c(cc(OCc3cc(F)c(Oc4cncc(C(F)(F)F)c4)c(F)c3)nc2=O)N1C [E150, (S)-8-((3,5-difluoro-4-((5-(trifluoromethyl)pyridin-3-yl)oxy)benzyl)oxy)-1,2-dimethyl-3,4-dihydro-1H-pyrimido[1,6-a]pyrimidin-6(2H)-one]",
≤ 1,≤ 10,"C[C@H]1CCn2c(cc(OCc3ccc(Oc4ccnc(C(F)(F)F)c4)c(F)c3)nc2=O)N1C [E151, (S)-8-((3-fluoro-4-((2-(trifluoromethyl)pyridin-4-yl)oxy)benzyl)oxy)-1,2-dimethyl-3,4-dihydro-1H-pyrimido[1,6-a]pyrimidin-6(2H)-one]",
≤ 1,≤ 10,CN1c2cc(OCc3cc(F)c(Oc4ccnc(C(F)(F)F)c4)c(F)c3)nc(=O)n2CCC1(C)C [E153],
